Laboratory results published in patent publication US20140235558A1, “PHARMACEUTICAL COMPOSITION HAVING ACTIVITY OF ANTICANCER” (Hanall Biopharma Co., Ltd., priority 2010, published 2014).
Where a name gives a salt, the structure may show the parent alone. Read-outs that look alike come from different tables or passages of the source.

Tests used:
[1] = test system: colorectal cancer cell line HCT116; experiment: MTT cell growth inhibition, HCT116 cells; format: cell-based, human
Protocol: (§1) Briefly, MCF7 and NCI-N87 cells were grown at a density of 5,000 cells/well in DMEM and RPMI1640 media (both purchased from Gibco Life Technologies, USA), respectively, both supplemented with 10% (v/v) bovine calf serum (BCS), on 96-well plates for 16 h (Temp.: 37° C., pH: 7.0˜7.4). Then, the MCF7 cells were incubated for 48 h with 2.5 mM 2-deoxy-D-glucose and 100 μM phenformin HCl, solely or in combination while NCI-N87 cells were incubated for 48 h with 2.5 mM 2-deoxy-D-glucose and 700 μM phenformin HCl, solely or in combination (Temp.: 37° C., pH: 7.0˜7.4). To quantitate viable cells after incubation with 2-deoxy-D-glucose and phenformin HCl, the cell cultures were further incubated for 3 h in the presence of MTT. The formazan crystals thus formed were dissolved with DMSO (dimethyl sulfoxide) before reading absorbance at 560 nm.
(§2) After the 48 h incubation, viable cells were counted on the well plates treated with 2-deoxy-D-glucose and phenformin, and expressed as % cell growth inhibition relative to the count of the viable cells on the well plates treated with neither 2-deoxy-D-glucose nor phenformin.
(§3) The same procedure as in Experimental Example 3 was repeated in the breast cancer cell line MCF7 and the colorectal cancer cell line HCT116 (both purchased from the Korean Cell Line Bank), with the exception that the materials and concentrations indicated in Tables 5 and 6 were employed.

[2] = test system: human breast cancer cell line MCF7; experiment: MTT cell growth inhibition, MCF7 cells; format: cell-based
Protocol: as §1, §2
(§4) When the human breast cancer cell line MCF7 and the human stomach cancer cell line NCI-N87 were treated with various concentrations of phenformin and 2-deoxy-D-glucose, % inhibition of cancer cell growth was measured. The same procedure as in Experimental Example 2 was repeated, with the exception that 2-deoxy-D-glucose and phenformin HCl were used at different concentrations.
as §3

[3] = test system: human stomach cancer cell line NCI-N87; experiment: MTT cell growth inhibition, NCI-N87 cells; format: cell-based
Protocol: as §1, §2, §4

[4] = test system: AMPKα (5′-AMP-activated protein kinase alpha); experiment: AMPK activation: phosphorylation of AMPKα at Thr172 in MCF7 cells (AMPKα immunoassay kit); format: cell-based, human; details: MCF7, 24 h
Protocol: AMPK activation occurs when the generation of ATP, an energy source necessary for the survival of cancer cells, is inhibited. […] In this regard, AMPKα (5'-AMP-activated protein kinase alpha) activation was measured in the MCF7 human breast cancer cells using the AMPKα immunoassay kit (Invitrogen, catalog No. KHO0651). […] Then, the cells were lysed using the AMPKα immunoassay kit (Invitrogen, catalog No. KHO0651) according to the manufacturer's instruction.

With `CN(C)C(=N)N=C(N)N` [Metformin HCl, metformin hydrochloride] the inhibition at 625 µM ([1]; Homo sapiens, HCT-116, metformin HCl 0.625 mM alone, read-out: Tumor Growth Inhibition (%)) was 7%, the inhibition at 1250 µM ([1]; Homo sapiens, HCT-116, metformin HCl 1.25 mM alone, read-out: Tumor Growth Inhibition (%)) was 11% and the inhibition at 2500 µM ([1]; Homo sapiens, HCT-116, metformin HCl 2.5 mM alone, read-out: Tumor Growth Inhibition (%)) was 40%. The inhibition at 5000 µM ([1]; Homo sapiens, HCT-116, metformin HCl 5.0 mM alone, read-out: Tumor Growth Inhibition (%)) was 64%, the inhibition at 10000 µM ([1]; Homo sapiens, HCT-116, metformin HCl 10.0 mM alone, read-out: Tumor Growth Inhibition (%)) was 63% and the inhibition at 20000 µM ([1]; Homo sapiens, HCT-116, metformin HCl 20.0 mM alone, read-out: Tumor Growth Inhibition (%)) was 66%. It also gave an inhibition at 625 µM ([2]; Homo sapiens, MCF7, metformin HCl 0.625 mM alone, read-out: Tumor Growth Inhibition (%)) of 9%, an inhibition at 1250 µM ([2]; Homo sapiens, MCF7, metformin HCl 1.25 mM alone, read-out: Tumor Growth Inhibition (%)) of 22% and an inhibition at 2500 µM ([2]; Homo sapiens, MCF7, metformin HCl 2.5 mM alone, read-out: Tumor Growth Inhibition (%)) of 24%. The inhibition at 5000 µM ([2]; Homo sapiens, MCF7, metformin HCl 5.0 mM alone, read-out: Tumor Growth Inhibition (%)) was 30%, the inhibition at 10000 µM ([2]; Homo sapiens, MCF7, metformin HCl 10.0 mM alone, read-out: Tumor Growth Inhibition (%)) was 38% and the inhibition at 20000 µM ([2]; Homo sapiens, MCF7, metformin HCl 20.0 mM alone, read-out: Tumor Growth Inhibition (%)) was 61%.

In the case of `OCC1O[C@H](O)C[C@@H](O)[C@@H]1O` (mixture of isomers) [2-Deoxy-D-glucose, 2-deoxy-D-glucose], the “Tumor Growth Inhibition (%)” value ([1]; 2-DG 2.5 mM alone) was 62%, the “Tumor Growth Inhibition (%)” value ([1]; 2-DG 5.0 mM alone) was 79% and the “Tumor Growth Inhibition (%)” value ([1]; 2-DG 20.0 mM alone) was 93%. For the same molecule, the inhibition at 2500 µM ([2]; Homo sapiens, MCF7, 48 h, read-out: Cell Growth Inhibition (%)) was 44.2%, the “Tumor Growth Inhibition (%)” value ([2]; MCF7, 2-DG 100 μM alone) was 0% and the “Tumor Growth Inhibition (%)” value ([2]; MCF7, 2-DG 500 μM alone) was 5%. For the same molecule, the “Tumor Growth Inhibition (%)” value ([2]; MCF7, 2-DG 2 mM alone) was 31%, the “Tumor Growth Inhibition (%)” value ([2]; MCF7, 2-DG 2.5 mM alone (Table 5)) was 58% and the “Tumor Growth Inhibition (%)” value ([2]; MCF7, 2-DG 5.0 mM alone) was 76%. For the same molecule, the “Tumor Growth Inhibition (%)” value ([2]; MCF7, 2-DG 20.0 mM alone) was 91%, the “inhibitory effect on breast cancer cells relative to stomach cancer cells” value ([2]; MCF7 vs NCI-N87, 2.5 mM) was “about 3 times” and the inhibition at 2500 µM ([3]; Homo sapiens, NCI-N87, 48 h, 2-deoxy-D-glucose 2.5 mM) was 15.1%. For the same molecule, the “Tumor Growth Inhibition (%)” value ([3]; NCI-N87, 2-DG 100 μM alone) was 3%, the “Tumor Growth Inhibition (%)” value ([3]; NCI-N87, 2-DG 500 μM alone) was 6% and the “Tumor Growth Inhibition (%)” value ([3]; NCI-N87, 2-DG 2 mM alone) was 32%. The “Normalized to Control (P-AMPK)” value ([4]; 2-deoxy-D-glucose 2.5 mM) was 1.46 and the “P-AMPK (Unit/ml)” value ([4]; 2-deoxy-D-glucose 2.5 mM) was 7.62 ± 1.2 Unit/ml.

Molecule `N=C(N)NC(=N)NCCc1ccccc1` [Phenformin HCl, phenformin hydrochloride] has an inhibition at 100 µM ([2]; Homo sapiens, MCF7, 48 h, phenformin HCl 100 μM, read-out: Cell Growth Inhibition (%)) of 14.3%, an inhibition at 10 µM ([2]; Homo sapiens, MCF7, phenformin 10 μM alone, read-out: Tumor Growth Inhibition (%)) of 9% and an inhibition at 50 µM ([2]; Homo sapiens, MCF7, phenformin 50 μM alone, read-out: Tumor Growth Inhibition (%)) of 12%. It also gave an inhibition at 100 µM ([2]; Homo sapiens, MCF7, phenformin 100 μM alone, read-out: Tumor Growth Inhibition (%)) of 14%, an inhibition at 200 µM ([2]; Homo sapiens, MCF7, phenformin 200 μM alone, read-out: Tumor Growth Inhibition (%)) of 18% and an inhibition at 400 µM ([2]; Homo sapiens, MCF7, phenformin 400 μM alone, read-out: Tumor Growth Inhibition (%)) of 31%. The inhibition at 1000 µM ([2]; Homo sapiens, MCF7, phenformin 1 mM alone, read-out: Tumor Growth Inhibition (%)) was 58%, the inhibition at 700 µM ([3]; Homo sapiens, NCI-N87, 48 h, phenformin HCl 700 μM) was 52.5% and the inhibition at 10 µM ([3]; Homo sapiens, NCI-N87, phenformin 10 μM alone, read-out: Tumor Growth Inhibition (%)) was 22%. For the same molecule, the inhibition at 50 µM ([3]; Homo sapiens, NCI-N87, phenformin 50 μM alone, read-out: Tumor Growth Inhibition (%)) was 24%, the inhibition at 100 µM ([3]; Homo sapiens, NCI-N87, phenformin 100 μM alone, read-out: Tumor Growth Inhibition (%)) was 24% and the inhibition at 200 µM ([3]; Homo sapiens, NCI-N87, phenformin 200 μM alone, read-out: Tumor Growth Inhibition (%)) was 24%. For the same molecule, the inhibition at 400 µM ([3]; Homo sapiens, NCI-N87, phenformin 400 μM alone, read-out: Tumor Growth Inhibition (%)) was 26%, the inhibition at 1000 µM ([3]; Homo sapiens, NCI-N87, phenformin 1 mM alone, read-out: Tumor Growth Inhibition (%)) was 39% and the “inhibitory effect on stomach cancer cells relative to breast cancer cells” value ([3]; NCI-N87 (700 μM) vs MCF7 (100 μM), 7-fold increased concentration) was “approximately 4 fold”. For the same molecule, the “Normalized to Control (P-AMPK)” value ([4]; phenformin HCl 50 nM [sic]) was 5.98 and the “P-AMPK (Unit/ml)” value ([4]; phenformin HCl 50 nM [sic]) was 12.14 ± 2.0 Unit/ml.
